In patent publication US20200165194A1, “ADDITIVE COMPOSITION FOR CULTURE MEDIUM, ADDITIVE COMPOUND FOR CULTURE MEDIUM, AND METHOD FOR CULTURE OF CELLS OR TISSUE USING SAME” (NISSAN CHEMICAL CORPORATION, priority 2017, published 2020):

How the values were obtained:
[1] = test system: mouse small intestinal organoid (Crypt); assay: Small intestine organoid formation in Matrigel (Experimental Example 4); format: cell-based; settings: 5 μM, 7 days
Protocol: About 20 cm of the mouse small intestine was excised, and the adipose tissue and vascular tissue were removed on ice. The contents were sufficiently washed with PBS, cut open with scissors, and fragmented to about 2 mm. They were washed 20 times with 15 mL of PBS and the supernatant was removed. 25 mL of Gentle Cell Dissociation Reagent (manufactured by STEMCELL) was added, and the mixture was incubated at room temperature for 15 min while stirring at 20 rpm. The supernatant was removed, 10 mL of cold 0.1% BSA/PBS was added to the precipitate, and pipetting was performed three times. The supernatant was filtered with a 70 μm cell strainer (manufactured by BD Bioscience), and the filtrate was collected. Similarly, addition of 0.1% BSA/PBS to the remaining precipitate, pipetting, and filtration were repeated three times, and thus series of the four filtrates were prepared. Each filtrate was centrifuged at 290 g for 5 min at 4° C. After removing the supernatant, the cells were resuspended in 10 mL of cold 0.1% BSA/PBS and centrifuged at 200 g for 3 min at 4° C. The supernatant was removed, 10 mL of DMEM/F12 (manufactured by Wako Pure Chemical Industries, Ltd.) was added and the cells were suspended. 1 mL was separated and observed under a microscope. A filtrate having a sufficient intestinal fragment (Crypt) was selected, and the number of Crypt was counted using a hemocytometer. Cold Matrigel (registered trade mark) Matrix GFR(manufactured by Corning) in an equal amount to the cell suspension was added, mixed, and quickly dispensed into a 24-well plate warmed to 37° C. at 500 crypts/[…]/well. The plate was allowed to stand at 37° C. for 10 min to complete gelation. […] As a control, a well with no addition of the compound was prepared. After culturing for 7 days, the number and diameter of the formed small intestinal organoids were measured under a microscope, and the comparison results with no addition (control) are shown in the ninth table.

[2] = test system: Canine kidney renal tubule epithelial cells (MDCK cells); assay: MDCK cells-1: Cyst formation on Matrigel, Cyst area by fluorescence microscope (Experimental Example 7); format: cell-based; settings: 10 μM, 7 days
Protocol: Canine kidney renal tubule epithelial cells (MDCK cells, manufactured by DS PHARMA BIO MEDICAL) were precultured in EMEM medium containing 10% FBS and 1% NEAA. Cold Matrigel (registered trade mark) Matrix GFR (manufactured by Corning) was spread on a 24-well plate by 50 μL and fixed by incubating at 37° C. for 15 min. The aforementioned MDCK cells were suspended in a medium at a concentration of 20000 cells/mL, cold Matrigel (registered trade mark) Matrix GFR was added at […] and seeded at 1 mL/well. […] As a control (compound no-addition), DMSO was added at a final concentration of 0.1%. Seven days later, the cells were washed with PBS (1 mL/well), 4% paraformaldehyde/PBS (manufactured by Wako Pure Chemical Industries, Ltd.) was added (1 mL/well) and fixed at room temperature for 20 min. Thereafter, the supernatant was removed, IF buffer (0.2% Triton X-100 (manufactured by Sigma-Aldrich), 0.05% Tween 20 (manufactured by Sigma-Aldrich)-containing PBS) were added at 1 mL/well, stood for 30 min and removed. […] After washing 3 times every 5 min with IF buffer, VECTASHIELD Mounting Medium with DAPI (manufactured by Vector Laboratories) was added dropwise, and the cells were observed and analyzed with a fluorescence microscope (ArrayScan, manufactured by Thermo Fisher Scientific).

CCC(=NNC(=O)C(CC)Nc1ccccc1)c1ccc(O)c(C)c1O (centres unmarked) [k-1:H-7]
organoid diameter (μm) ([1]; control 130 ± 18): 153 ± 21 μm | organoid number (relative value) ([1]; control = 1): 2.5 | organoid formation (in words) ([1]; mouse small intestinal organoid culture): promotes organoid formation | increase of the area per one Cyst ([2]; Control as 100): ≥ 20% | Cyst area (relative value) ([2]; control = 100): 124
